Test results taken from patent US6414035B1, “Use of polyols in combating yeast infection and polyol preparations for said use” (priority 1997, dated 2002).
Marks after values point to notes of the source that are not given here.

Tests used:
[1] = system: Candida isolate from AIDS patient No 1; assay: Sensitivity test of Candida isolate to antifungals; assay type: cell-based; details: for sensitivity of the isolate: Candida isolate from AIDS patient No 1
[2] = system: Candida (oral or esophageal candidiasis); assay: Open label pilot trial of dietary xylitol intake in AIDS patients with candida mucositis; assay type: in vivo, human; design: pain symptoms (score) / Sympt. score: scale not given here
Description: An open label, pilot trial was designed to test the effect of the strategy of dietary xylitol intake in replacement of sugar in patients with candida mucositis. AIDS patients with oral or esophageal candidiasis were selected as subjects for the study because of the frequency and the severity of candida mucositis that they usually develop. Patients with AIDS were considered eligible for the test after their oral or esophageal lesions were documented by microscopic examination of scrapings to be of Candida origin. They were free to continue on any antifungal therapy they might be receiving. Instructions were given to replace the saccharose that they normally take with coffee or tea for crystalline xylitol. Also, to avoid excess sweets like ice cream, cakes. cookies, and artificially flavored drinks that contain glucose. The following was done at baseline and thereafter every 7 days: 1. Pictures of the lesions 2. Tongue imprints in Sabouraud agar 3. Quantitative Candida cultures on unstimulated saliva (CFU/ml) 4. Pain questionnaire (numerical pain scale) 5. Weight 6. Patients kept a daily record of food and drink.

[3] = system: salivary Candida; details: diet of human test group during 8 months; cited from earlier work
[4] = system: Candida albicans; assay: Growth in vitro of Candida albicans in Muller Hinton broth with sweeteners (optical density 650 nm); assay type: cell-based; details: 10% concentration, 12 strains
Description: A test was designed to determine the effect on the growth in vitro of Candida albicans of xylitol, lactitol, sorbitol and aspartame in comparison to glucose and a non-carbohydrate control medium. The tested substances have all been used in the food industry as sweeteners. The sweetness of the substances in the above order is respectively 100%, 40%, 60% and 20.000% of the sweetness of glucose.
12 strains of Candida albicans obtained from patients with AIDS and oral candida mucositis were evaluated. The strains were inoculated on Sabouraud agar plates (20% dextrose) and incubated at room temperature for 48 hours. One colony from each plate was inoculated in Muller Hinton broth (without sweetener) and left for 18 hours at 35° C. The tubes were standardized to Mac Farland 0.5 (5×10^6 CFU/ml) and 100 μl inoculated in triplicate in spectrophotometer tubes containing 3 ml of Muller Hinton broth at final concentrations of glucose (5% and 10%); xylitol (5% and 10%); lactitol (5%, 8.3% and 10%); sorbitol (5%, 10% and 12.5%); and aspartame (0.025% and 0.05%). 3 tubes with Muller Hinton broth without carbohydrate was also inoculated to serve as controls.
Optical densities (650 nm) were determined at 0, 24 and 48 hours time. The average of three readings per time, per sweetener concentration was calculated and recorded. […]

[5] = system: Candida (recurrent oral candidiasis); assay: Pilot study of xylitol replacing dietary saccharose in patients with recurrent oral candidiasis; assay type: in vivo, human
Description: A pilot study was designed to test the effect of xylitol on the clinical course, Candida salivary counts, and antifungal needs of patients with recurrent oral candidiasis. The patients were instructed to replace their dietary saccharose with crystalline xylitol and to avoid excess saccharose-containing-foods and beverages.
Of 14 patients admitted to the test, 8 completed more than 14 days of follow up. The result was that all 8/8 experienced at least 70% regression of their lesions (improvement) with minimal antifungal therapy (1 nystatin tablet 500,000 U/per day); 5/8 had complete regression of the lesions (cure); and 6/8 decreased their salivary Candida counts by 2 logs.

[6] = system: Candida; details: cited from earlier work
[7] = system: Candida isolate from AIDS patient No 1; assay: Growth of Candida isolate on Muller Hinton agar with sugar or sugar alcohol; assay type: cell-based; details: 5 and 10%, FIG. 1
Procedure: The effect of sugar alcohols on the growth of said Candida isolate was tested on Muller Hinton agar with 5 and 10% glucose or 5 and 10% xylitol and a control without sugar.

C[C@@H]1[C@H](O)[C@@H](C)/C=C/C=C/C=C/C=C/C=C/C=C/C=C/[C@H](O[C@@H]2O[C@H](C)[C@@H](O)[C@H](N)[C@@H]2O)C[C@@H]2O[C@](O)(C[C@@H](O)C[C@@H](O)[C@H](O)CC[C@@H](O)C[C@@H](O)CC(=O)O[C@H]1C)C[C@H](O)[C@H]2C(=O)O [Amphotericin B]
sensitivity of the isolate [1]: sensitive

OC(Cn1cncn1)(Cn1cncn1)c1ccc(F)cc1F [Fluconazole]
follow up esophagoscopy ([2]; AIDS patient No 2, a month later, fluconazole p.o. for 15 days during xylitol trial): no lesions
MIC ([1]; Candida): > 256 µg/mL
sensitivity of the isolate [1]: resistant

O=C(CO)[C@@H](O)[C@H](O)[C@H](O)CO [fructose]
number of persons with salivary Candida growth [3]: slight increase

OC[C@H]1O[C@@](CO)(O[C@H]2O[C@H](CO)[C@@H](O)[C@H](O)[C@H]2O)[C@@H](O)[C@@H]1O [sucrose]
number of persons with salivary Candida growth [3]: slight increase

OC[C@@H](O)[C@H](O)[C@@H](O)CO [xylitol]
rank among tested compounds at reducing the growth of Candida in vitro [4]: by far the best
number of persons with salivary Candida growth [3]: significantly reduced
lesions and fungal cultures after 4 months of xylitol intake ([5]; 1 patient, previously fluconazole resistant isolate (E test)): without lesions and sterile fungal cultures
patients who decreased their salivary Candida counts by 2 logs ([5]; more than 14 days follow up): 6/8
patients with complete regression of the lesions (cure) ([5]; more than 14 days follow up): 5/8
patients with at least 70% regression of their lesions (improvement) ([5]; more than 14 days follow up, with minimal antifungal therapy (1 nystatin tablet 500,000 U/per day)): 8/8
time to return to baseline after returning to saccharose intake ([5]; three patients): 3 days
esophageal lesions ([2]; AIDS patient No 2, Candida esophagitis, two weeks after start of xylitol intake, no antifungal therapy): unchanged lesions
Sympt. score ([2]; AIDS patient No 2, day 1): 18
Weight ([2]; AIDS patient No 2, day 1): 58,5 Kg
CFU/ml saliva ([2]; AIDS patient No 2, day 7): 0 CFU/ml
Sympt. score ([2]; AIDS patient No 2, day 7): 0
Weight ([2]; AIDS patient No 2, day 7): 58,5 Kg
Sympt. score ([2]; AIDS patient No 2, day 15): 0
Weight ([2]; AIDS patient No 2, day 15): 58,5 Kg
CFU/ml saliva ([2]; AIDS patient No 2, day 15, counted at 72 hours): 3,6 × 10^3** CFU/ml
Sympt. score ([2]; AIDS patient No 2, day 22): 0
Weight ([2]; AIDS patient No 2, day 22): 57,5 Kg
CFU/ml saliva ([2]; AIDS patient No 2, day 22, counted at 72 hours, fluconazole p.o. started after two weeks): 4,5 × 10^2** CFU/ml
Sympt. score ([2]; AIDS patient No 2, day 29): 0
Weight ([2]; AIDS patient No 2, day 29): 57,2 Kg
CFU/ml saliva ([2]; AIDS patient No 2, day 29, fluconazole p.o. started after two weeks): 0 CFU/ml
Sympt. score ([2]; AIDS patient No 2, day 36): 0
Weight ([2]; AIDS patient No 2, day 36): 57,7 Kg
CFU/ml saliva ([2]; AIDS patient No 2, day 36, fluconazole p.o. 15 days given after two weeks): 0 CFU/ml
Sympt. score ([2]; AIDS patient No 2, day 50): 0
Weight ([2]; AIDS patient No 2, day 50): 56,9 Kg
CFU/ml saliva ([2]; AIDS patient No 2, day 50, fluconazole p.o. 15 days given after two weeks): 0 CFU/ml
symptom-free follow-up period ([2]; AIDS patient No. 1, about 30 g crystalline xylitol daily): 80 days
Candida counts ([2]; AIDS patient No. 1, after 2.5 months): still negative
Sympt. score ([2]; AIDS patient No. 1, day 1): 18
Weight ([2]; AIDS patient No. 1, day 1): 62 kg
CFU/mL saliva ([2]; AIDS patient No. 1, day 1, counted at 48 hours): 1×10^4 CFU/mL
Sympt. score ([2]; AIDS patient No. 1, day 8): 0
Weight ([2]; AIDS patient No. 1, day 8): 62.6 kg
CFU/mL saliva ([2]; AIDS patient No. 1, day 8, plates held for 7 days): 0** CFU/mL
Sympt. score ([2]; AIDS patient No. 1, day 18): 0
Weight ([2]; AIDS patient No. 1, day 18): 73.4 kg
CFU/mL saliva ([2]; AIDS patient No. 1, day 18, plates held for 7 days): 0** CFU/mL
Sympt. score ([2]; AIDS patient No. 1, day 29): 0
Weight ([2]; AIDS patient No. 1, day 29): 73 kg
CFU/mL saliva ([2]; AIDS patient No. 1, day 29, plates held for 7 days): 0** CFU/mL
Sympt. score ([2]; AIDS patient No. 1, day 36): 0
Weight ([2]; AIDS patient No. 1, day 36): 74.8 kg
CFU/mL saliva ([2]; AIDS patient No. 1, day 36, plates held for 7 days): 0** CFU/mL
Sympt. score ([2]; AIDS patient No. 1, day 56): 0
Weight ([2]; AIDS patient No. 1, day 56): 75 kg
CFU/mL saliva ([2]; AIDS patient No. 1, day 56, plates held for 7 days): 0** CFU/mL
Sympt. score ([2]; AIDS patient No. 1, day 80): 0
Weight ([2]; AIDS patient No. 1, day 80): 75.1 kg
CFU/mL saliva ([2]; AIDS patient No. 1, day 80, plates held for 7 days): 0** CFU/mL
Candida counts ([2]; AIDS patient No. 1, day seven): negative
weight gained ([2]; AIDS patient No. 1, follow-up of 80 days): 13.1 kilograms
time to disappearance of the lesions ([2]; AIDS patient No. 1, ketoconazole discontinued on day four): 1 week
improvement noticed by the patient ([2]; AIDS patient No. 1, on ketoconazole until day four): clear improvement on day four
time to recurrence of oral candidiasis after stopping the xylitol trial ([2]; AIDS patient No. 3): 4 days
pain symptoms (score) ([2]; AIDS patient No. 3, at start): 30
saliva counts ([2]; AIDS patient No. 3, first 17 days): diminished
pain symptoms (score) ([2]; AIDS patient No. 3, in the first 17 days, 1 nystatin troche during the first five days): 8
Candida growth and invasion compared to controls ([6]; given instead of glucose): did not increase
invasion of gastrointestinal mucosa by Candida relative to mice receiving glucose ([6]; immunocompromised mice): five times less
scores of invasion versus control mice receiving no sugar ([6]; immunocompromised mice): not significantly different
growth of Candida isolate compared to control without sugar [7]: inhibited in a dose dependent way
